The text below walks through data of BindingDB's records for doi:10.1016/j.ejmech.2016.05.044 (Texas A&M University, 2016).

A short description of the test: Negative allosteric modulator activity at CB1 receptor (unknown origin) expressed in HEK293 cell membrane assessed as reduction in CP55,940-induced [35S]GTPgammaS binding by measuring EC50 of CP55,940 at 3.2 uM incubated for 60 mins by liquid scintillation counting analysis (Rvb = 4.7 nM).
With `CCCCCc1c(C(=O)NCCc2ccc(C(=O)c3ccccc3)cc2)[nH]c2ccc(Cl)cc12`, the EC50 (in general, the concentration that produces a half-maximal response) is 7.9 nM.

As for `CCCCCCc1c(C(=O)NCCc2ccc(N=[N+]=[N-])cc2)[nH]c2ccc(Cl)cc12`, the EC50 stood at 2.1 nM.

Consider `CN(C)c1ccc(CCNC(=O)c2[nH]c3ccc(Cl)cc3c2CN=[N+]=[N-])cc1`, for which the EC50 turned out to be 1.2 nM.

As to `CCc1c(C(=O)NCCc2ccc(C(=O)c3ccccc3)cc2)[nH]c2ccc(Cl)cc12`, the EC50 came out at 2.7 nM.
